Measurements: article PMC3532055 (Journal of medicinal chemistry, 2012)

Tests used:
α2β2 = α2β2 (Rattus norvegicus, UniProt P12389+P12390); assay: [3H]epibatidine competition binding, rat α2β2 nAChR; settings: read-out: Ki α2β2, ± SEM
α7-nAChRs [1] = target: T1, α7-nAChRs (Rattus norvegicus, UniProt Q05941); assay: Binding test at α7-nAChRs
α7-nAChRs [2] = target: T1, α7-nAChRs; assay: Binding test at α7*-nAChRs; settings: endogenous receptors prepared from rat forebrain
BALB/cJ male mice = assay: Mouse forced swim test; settings: vs vehicle
human α7-nAChRs = settings: read-out: Ki human α7-nAChRs; cited from earlier work
[3] = 5, 10, and 30 mg/kg ip, 30 min before 6 min trial

c1ncc(-c2cc(CCN3CCOCC3)no2)cc1OC[C@@H]1CCCN1 [Compound 28, 4-[2-[5-[5-(2(S)-Pyrrolidinylmethoxy)-3-pyridinyl]-3-isoxazolyl]ethyl]morpholine]
Ki (α2β2): 74 ± 13 nM

c1ncc(-c2cc(CCN3CCOCC3)no2)cc1OC[C@@H]1CCN1 [Compound 27, 4-[2-[5-[5-(2(S)-Azetidinylmethoxy)-3-pyridinyl]-3-isoxazolyl]ethyl]morpholine]
Ki (α2β2): 12.3 ± 2.1 nM

CCc1cc(-c2cncc(OC[C@@H]3CCN3)c2)on1 [Compound 38, 3-(2(S)-Azetidinylmethoxy)-5-(3-ethyl-5-isoxazolyl)pyridine]
activity at α7-nAChRs (α7-nAChRs [1]): no activity | activity at α7*-nAChRs (α7-nAChRs [2]): no activity | immobility in the mouse forced swim test (BALB/cJ male mice; 1, 3, 5, 10, and 30 mg/kg ip, 30 min before 6 min trial): reduced immobility

FC(F)CCc1cc(-c2cncc(OC[C@@H]3CCN3)c2)on1 [Compound 25, 3-(2(S)-Azetidinylmethoxy)-5-[3-(3,3-difluoropropyl)-5-isoxazolyl]pyridine]
activity at α7-nAChRs (α7-nAChRs [1]): no activity | activity at α7*-nAChRs (α7-nAChRs [2]): no activity | immobility in the mouse forced swim test (BALB/cJ male mice; [3]): reduced immobility

FCCCc1cc(-c2cncc(OC[C@@H]3CCN3)c2)on1 [Compound 26, 3-(2(S)-Azetidinylmethoxy)-5-[3-(3-fluoropropyl)-5-isoxazolyl]pyridine]
immobility in the mouse forced swim test (BALB/cJ male mice; [3]): reduced immobility

c1cncc(OC[C@@H]2CCN2)c1 [Compound A-85380, 3-(2(S)-azetidinylmethoxy) pyridine]
Ki (human α7-nAChRs): 148 nM

CN[C@H]1CC[C@@H](c2ccc(Cl)c(Cl)c2)c2ccccc21 [sertraline, reference compound]
immobility in the mouse forced swim test (BALB/cJ male mice; 20 mg/kg ip, positive control): expected decrease in immobility

OCCc1cc(-c2cncc(OC[C@@H]3CCN3)c2)on1 [Compound 13, 2-[5-[5-((S)Azetidin-2-ylmethoxy)-3-pyridinyl]-3-isoxazolyl]ethanol]
activity at α7-nAChRs (α7-nAChRs [1]): no activity | activity at α7*-nAChRs (α7-nAChRs [2]): no activity
